Data from patent US11999806B2, “Broad-spectrum polypeptide against enterovirus and application thereof” (WUHAN INSTITUTE OF VIROLOGY, CHINESE ACADEMY OF SCIENCES, priority 2018, dated 2024).
Where “and” joins values, the source holds several entries; their conditions need not be identical. Identical values can stand only once. Like-named read-outs stand apart in the source and are kept apart here. Non-standard residues stand in square brackets, D forms with d. Residues, ends and D or L forms follow the SMILES beside them. No end group written: not given here.

System: EV71
Type: cell-based, enterovirus 71
Conditions: RD cells, EV71 0.1 MOI, 24 h; for IC50: read-out: IC50 against EV71 by CCK8 method; for Virus inhibition rate (%): CCK-8
Description: • (1) 293T cells were plated in a 24-well cell plate. • (2) After the cells reached 70%-80% confluence, the MEM medium containing 10% serum was replaced with a MEM medium containing 2% serum (0.5 ml/well), and 5 μl of 10^6 PFU/mL EV71 virus per well was added. • (3) After 1 hour, polypeptides P2, 3A-TAT-EP, 3A-EP-DRI and 3A-EP-PEG-PA were added at a final concentration of 0.01 μM, 0.1 μM, 1 μM, and 10 μM, respectively. • (4) Samples were collected 24 hours after virus infection, and RNA was extracted with a total RNA extraction kit. • (5) The supernatant in each well was discarded, then 350 μl of TRK Lysis Buffer was added to the well and the plate was shaken on the shaker for 5 minutes. • (6) 350 μl of 70% ethanol (DEPC-treated) was added to the well and the plate was shaken on the shaker for 5 minutes. • (7) The mixture in the well was transferred to a RNA extraction column and centrifuged at 12000 g for 1 min. • (8) The solution collected in the recovery tube was added back to the column and centrifuged at 12,000 g for 1 min. • (9) RNA washing buffer 1 was added to the column and centrifuged at 12,000 g for 30 s. • (10) RNA washing buffer 2 was added to the column and centrifuged at 12,000 g for 1 min. • (11) Step (10) was repeated once. • (12) The empty column was centrifuged at 12,000 g for 2 min to completely remove residual RNA washing buffer. • (13) 50 μl DEPC-treated water was added to the column and centrifuge at 12000 g for 2 min. • (14) 2 μl RNA sample was used according to one step qRT-PCR kit for fluorescence quantification experiment. 3. […] Each concentration was tested in triplicate. • (3) The diluted virus solution was added to the plate of step (1), 100 μL per well with the final virus concentration was 0.1 MOI. Wells without polypeptide and virus (well without treatment), wells with virus only were used as controls. • (4) The mixture of step (2) was added to the 96-well plate plated with cells in step (1) and incubated in 5% CO2 at 37° C. for 24 h. Then CCK8 kit was used to determine the inhibitory effect of the polypeptide on virus. • (5) The inhibition rate of different concentrations of polypeptides on viral infection was calculated using the following formula: OD means the value of OD450-OD630, inhibition rate=(OD well with treatment−OD well with virus only)×100%/(OD well without treatment−OD well with virus only)
• (1) RD cells in good growth state were plated in a 96-well plate. • (2) After the cells reached 70%-80% confluence, the MEM medium containing 10% serum was replaced with a MEM medium containing 2% serum. Group without polypeptide and virus, and group with virus but without polypeptide were included as controls. The final virus concentration was 0.1 MOI. • (3) 1 h later, polypeptide CR at a final concentration of 5 μM, 2.5 μM, 1.25 μM, 0.625 μM, 0.3125 μM, and 0.15625 μM was added, respectively. Group without polypeptide and virus, and group with virus but without polypeptide were set as controls. • (4) 24 hours after virus infection, when the change in the control group with only virus was obvious, 10 μl of viable cell detection agent CCK-8 was added to each well and mixed well. • (5) The plate was incubated at 37° C. for 2 h. • (6) The absorbance value at OD450 was measured with a microplate reader. Inhibition rate of polypeptide=(OD well with treatment−OD well with virus only)×100%/(OD well without treatment−OD well with virus only), OD refers to the value of OD450-OD630.
• (1) RD cells in good growth state were plated in a 96-well plate. • (2) After the cells reached 70%-80% confluence, the MEM medium containing 10% serum was replaced with a MEM medium containing 2% serum. Group without polypeptide and virus, and group with virus but without polypeptide were included as controls. The final virus concentration was 0.1 MOI. • (3) 1 h later, polypeptide CR at a final concentration of 2.5 μM, 1.25 μM, 0.625 μM, 0.3125 μM, and 0.15625 μM was added, respectively. […]

Compound | IC50 | Virus inhibition rate (%) (0.625 μM) | Virus inhibition rate (%) (1.25 μM) | Virus inhibition rate (%) (2.5 μM)
YGRKKRRQRRRGSGEEVRQYCR [ER] | 1260 nM |  |  | 
CC[C@@H](C)[C@@H](NC(=O)[C@H]1CCCN1C(C)=O)C(=O)N[C@@H](C(=O)N[C@H](Cc1c[nH]c2ccccc12)C(=O)NCC(=O)N[C@H](CCC(N)=O)C(=O)N[C@H](CCC(=O)O)C(=O)N[C@H](CCCNC(=N)N)C(=O)N[C@H](CS)C(=O)N[C@H](Cc1ccc(O)cc1)C(=O)N[C@H](CCC(N)=O)C(=O)N[C@H](CCCNC(=N)N)C(=O)N[C@@H](C(=O)N[C@H](CCC(=O)O)C(=O)N[C@H](CCC(=O)O)C(=O)N1CCC[C@@H]1C(=O)N1CCC[C@@H]1C(=O)N[C@H](CCCNC(=N)N)C(=O)N[C@H](CCCNC(=N)N)C(=O)N[C@H](CCCNC(=N)N)C(=O)N[C@H](CCC(N)=O)C(=O)N[C@H](CCCNC(=N)N)C(=O)N[C@H](CCCNC(=N)N)C(=O)N[C@H](CCCCN)C(=O)N[C@H](CCCCN)C(=O)N[C@H](CCCNC(=N)N)C(=O)NCC(=O)N[C@H](Cc1ccc(O)cc1)C(N)=O)C(C)C)[C@H](C)CC [3A-EP-DRI] | 3560 nM |  |  | 
CC(=O)N[C@H](CCCNC(=N)N)C(=O)N[C@H](CS)C(=O)N[C@H](Cc1ccc(O)cc1)C(=O)N[C@H](CCC(N)=O)C(=O)N[C@H](CCCNC(=N)N)C(=O)N[C@@H](C(=O)N[C@H](CCC(=O)O)C(=O)N[C@H](CCC(=O)O)C(=O)N1CCC[C@@H]1C(=O)N1CCC[C@@H]1C(=O)N[C@H](CCCNC(=N)N)C(=O)N[C@H](CCCNC(=N)N)C(=O)N[C@H](CCCNC(=N)N)C(=O)N[C@H](CCC(N)=O)C(=O)N[C@H](CCCNC(=N)N)C(=O)N[C@H](CCCNC(=N)N)C(=O)N[C@H](CCCCN)C(=O)N[C@H](CCCCN)C(=O)N[C@H](CCCNC(=N)N)C(=O)NCC(=O)N[C@H](Cc1ccc(O)cc1)C(N)=O)C(C)C [ER-DRI] (Ac-[dR][dC][dY][dQ][dR][dV][dE][dE][dP][dP][dR][dR][dR][dQ][dR][dR][dK][dK][dR]G[dY]-NH2) | 640 nM | 37.8% and 40.47% and 37.95% | 75.85% and 72.43% and 77.52% | 78.68% and 85.29% and 79.76%
